# Experimental data from US4808596A, “Imidazo[4,5-b]pyridine compounds and pharmaceutical compositions containing same” (Tokyo Tanabe Company, Ltd., priority 1986, dated 1989).
# What was measured:
# Indomethacin ulcer = experiment: Inhibitory effect on indomethacin ulcer; type: in vivo, male Wistar rats; settings: Rattus norvegicus; oral, rats; 30 minutes before indomethacin 25 mg/kg s.c.; 7 hours; read-out: Inhibitory effect on Indomethacin ulcer, ID50
# Procedure: (§1) The inhibitory effects of the present compounds [I] on various experimental ulcers were tested by using male Wistar rats, weighing about 200 g, in groups of six and determining the respective ulceration indexes for 5 types of experimental ulcers. In each test, the test compounds were suspended in a 0.5% aqueous solution of carboxymethyl cellulose and administered orally in a series of appropriately selected doses ranging from 1 to 100 mg/kg. The test procedures for 5 types of experimental ulcers were as follows:
# To rats which had been fasted for 24 hours, indomethacin was subcutaneously administered in a dose of 25 mg/kg. After 7 hours, each rat was sacrificed and the length of the ulcer(s) formed in the glandular stomach part was measured. The ulceration index was calculated on the basis of the data thus obtained. The test compounds were administered 30 minutes before administration of indomethacin.
# (§2) The pharmacological effect of the test compounds on each of the aforesaid experimental ulcers was evaluated on the basis of the dose (in mg/kg) required to inhibit the formation of ulcers by 50% (hereinafter referred to as ID50). The ID50 value of each test compound was determined by calculating the difference in ulceration index between the untreated group and each treated group, dividing the difference by the ulceration index of the untreated group to obtain the degree of inhibition, and constructing a dose-response curve on the basis of the data thus obtained. For purposes of comparison, the ID50 values of Omeprazole and Compounds α and β were determined in the same manner as described above and are also shown in Table 4.
# (H^+ +K^+) ATPase = target: T1, (H^+ +K^+) ATPase (Sus scrofa, UniProt P19156); experiment: Inhibitory effect on (H^+ +K^+) ATPase; type: biochemical, hog; settings: in vitro; for inhibition at 1000 µM: at 1 × 10^-3 M, read-out: Degree of inhibition, Inhibitory effect on (H^+ + K^+) ATPase
# T1 construct: prepared from fresh pieces of the fundus ventriculi of hog stomach; from tissue; host or cells: hog stomach, fundus ventriculi (fresh pieces), prepared by the method of Saccomani et al., J. Biol. Chem. 1976
# Procedure: The inhibitory effect of the present compounds [I] on (H^+ +K^+) ATPase was tested by adding each test compound to a solution containing 300-500 μg, on a protein basis, of the enzyme, incubating this reaction mixture at 35°-37° C. for 5-30 minutes, and then determining the residual activity of (H^+ +K^+) ATPase present in the reaction mixture. The test compounds were dissolved in methanol or ethanol in advance and added to the reaction system in such an amount as to give a concentration of 1×10^-3 M. The (H^+ +K^+) ATPase used in this test was prepared from fresh pieces of the fundus ventriculi of hog stomach according to the method of Saccomani et al. (The Journal of Biological Chemistry, Vol. 251, No. 23, p. 7690, 1976). The residual activity of (H^+ +K^+) ATPase was determined by mixing magnesium chloride and potassium chloride with the incubated reaction mixture, adding adenosine triphosphate thereto, incubating this assay mixture 37° C. for 5-15 minutes to effect an enzymic reaction, and colorimetrically determining the liberated inorganic phosphate by use of an ammonium molybdate reagent. The initial concentrations of magnesium chloride, potassium chloride and adenosine triphosphate were adjusted to 2 mM, 20 mM and 2 mM, respectively. Colorimetric determinations were made at a wavelength of 360-400 nm. As a control experiment, the residual activity of (H^+ +K^+) ATPase was determined by repeating the above-described procedure without adding any test compound to the reaction system. In this table, the inhibitory effect is indicated by the degree of inhibition which was obtained by calculating the difference between the measured value obtained in the control experiment and the measured value resulting from the addition of each test compound and expressing this difference as a percentage of the measured value obtained in the control experiment. For purposes of comparison, the inhibitory effect of Omeprazole and Compounds α and β on (H^+ +K^+) ATPase was tested in the same manner as described above and the results thus obtained are also shown in Table 2.
# [1] = tested on: Water-immersion stress ulcer; experiment: Inhibitory effect on water-immersion stress ulcer; type: in vivo, male Wistar rats; settings: Rattus norvegicus; oral, rats; 10 minutes before exposure to the stress; 10 hours; read-out: Inhibitory effect on Water-immersion stress ulcer, ID50
# Procedure: as §1
# Rats which had been fasted for 15 hours were immobilized in stress cages and immersed chest-deep in a water bath at 21° C. After 10 hours, each rat was sacrificed and the length of the ulcer(s) formed in the glandular stomach part was measured. The ulceration index was calculated on the basis of the data thus obtained. The test compounds were administered 10 minutes before exposure to the stress.
# as §2
# gastric acid secretion = experiment: Inhibitory effect on gastric acid secretion (pylorus ligation); type: in vivo, male Wistar rats; settings: for ED50: Rattus norvegicus, po, rats, total acidity of gastric juice 4 hours after pylorus ligation; for inhibitory effect on gastric acid secretion (in words): in vivo
# Procedure: The inhibitory effect of the present compounds [I] on gastric acid secretion was tested by using male Wistar rats, weighing about 200 g, in groups of five. To these rats which had been fasted overnight, the test compounds were orally administered in a series of appropriately selected doses ranging from 1 to 100 mg/kg. Then, the pyloric end of the stomach was ligated. After the lapse of 4 hours, the total acidity of gastric juice of each rat was measured. More specifically, the test compounds were suspended in a 0.5% aqueous solution of carboxymethyl cellulose and administered to the rats 30 minutes before ligation. Gastric juice was collected by sacrificing and laparotomizing each rat. The total acidity of gastric juice was determined by titrating the gastric juice with a 0.1 N aqueous solution of sodium hydroxide until a pH of 7.0 was reached. As a control experiment, the total acidity of gastric juice of an untreated group was determined in the same manner as described above. The inhibitory effect of the test compounds on gastric acid secretion was evaluated on the basis of the dose (in mg/kg) required to inhibit gastric acid secretion, i.e. the total acidity of gastric juice, by 50% (hereinafter referred to as ED50). The ED50 value of each test compound was determined by calculating the difference in total acidity between the untreated group and each treated group, dividing the difference by the total acidity of the untreated group to obtain the degree of inhibition, and constructing a dose-response curve on the basis of the data thus obtained. For purposes of comparison, the ED50 values of Omeprazole and Compounds α and β were determined in the same manner as described above and are also shown in Table 3.
# [2] = tested on: Hydrochloric acid-ethanol ulcer; experiment: Inhibitory effect on hydrochloric acid-ethanol ulcer; type: in vivo, male Wistar rats; settings: Rattus norvegicus; oral, rats; 30 minutes before hydrochloric acid-ethanol; 1 hour; read-out: Inhibitory effect on Hydrochloric acid-ethanol ulcer, ID50
# Procedure: as §1
# To rats which had been fasted for 24 hours, a 150 mM hydrochloric acid-60% ethanol mixture was orally administered in an amount of 0.5 ml per 100 g of body weight. After an hour, each rat was sacrificed and the length of the ulcer(s) formed in the glandular stomach part was measured. The ulceration index was calculated on the basis of the data thus obtained. The test compounds were administered 30 minutes before administration of the hydrochloric acid-ethanol mixture.
# as §2
# T1 sequence (P19156 2-1034 limits assumed): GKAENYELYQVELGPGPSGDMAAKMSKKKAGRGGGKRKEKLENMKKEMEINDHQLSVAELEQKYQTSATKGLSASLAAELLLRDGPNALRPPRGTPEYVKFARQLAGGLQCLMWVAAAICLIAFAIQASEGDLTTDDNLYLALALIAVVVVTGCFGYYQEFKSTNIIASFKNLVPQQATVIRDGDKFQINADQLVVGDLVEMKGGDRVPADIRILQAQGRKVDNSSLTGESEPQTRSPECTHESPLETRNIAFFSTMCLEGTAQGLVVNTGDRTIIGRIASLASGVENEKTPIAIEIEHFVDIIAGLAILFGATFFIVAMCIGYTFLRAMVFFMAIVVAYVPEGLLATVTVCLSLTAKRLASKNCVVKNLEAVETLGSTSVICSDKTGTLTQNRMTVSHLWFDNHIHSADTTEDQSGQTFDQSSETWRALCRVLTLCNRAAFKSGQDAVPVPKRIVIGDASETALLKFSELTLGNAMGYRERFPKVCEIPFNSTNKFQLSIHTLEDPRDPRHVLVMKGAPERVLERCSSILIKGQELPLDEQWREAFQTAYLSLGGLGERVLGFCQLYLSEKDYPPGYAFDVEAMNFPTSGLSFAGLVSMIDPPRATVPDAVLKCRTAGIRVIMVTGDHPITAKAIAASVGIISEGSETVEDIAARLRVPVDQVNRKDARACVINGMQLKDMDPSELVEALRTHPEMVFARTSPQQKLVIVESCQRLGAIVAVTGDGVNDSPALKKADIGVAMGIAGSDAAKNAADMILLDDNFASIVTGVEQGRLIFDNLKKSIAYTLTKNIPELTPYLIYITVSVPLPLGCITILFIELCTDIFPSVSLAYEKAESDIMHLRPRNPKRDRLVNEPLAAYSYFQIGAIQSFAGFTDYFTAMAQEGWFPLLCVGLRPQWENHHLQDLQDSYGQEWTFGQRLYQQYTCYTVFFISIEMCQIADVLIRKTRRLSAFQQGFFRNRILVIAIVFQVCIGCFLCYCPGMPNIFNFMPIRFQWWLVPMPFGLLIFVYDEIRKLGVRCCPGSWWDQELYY
# T1 sequence (P18434 whole entry partner): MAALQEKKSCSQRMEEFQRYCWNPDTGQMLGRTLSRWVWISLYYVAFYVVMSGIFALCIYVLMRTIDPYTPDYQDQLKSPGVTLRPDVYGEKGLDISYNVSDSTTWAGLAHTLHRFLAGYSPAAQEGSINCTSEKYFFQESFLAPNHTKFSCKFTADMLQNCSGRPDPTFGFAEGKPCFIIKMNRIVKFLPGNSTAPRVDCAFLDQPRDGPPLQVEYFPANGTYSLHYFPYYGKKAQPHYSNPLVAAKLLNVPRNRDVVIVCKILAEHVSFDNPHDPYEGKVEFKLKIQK
smiles,measurement,setting,value
"COc1c(C)cnc(C[S+]([O-])c2nc3nc(OCC(F)(F)F)ccc3[nH]2)c1C (stereo not shown) [Example 26, 2-[2-(3,5-Dimethyl-4-methoxy)pyridylmethylsulfinyl]-5-(2,2,2-trifluoroethoxy)imidazo[4,5-b]pyridine]",ED50,Indomethacin ulcer,15.8 mg/kg
same,inhibition at 1000 µM,(H^+ +K^+) ATPase,100%
same,ED50,[1],30.5 mg/kg
same,ED50,gastric acid secretion,15 mg/kg
same,ED50,[2],7.9 mg/kg
"COc1cc(C[S+]([O-])c2nc3nc(OCC4CC4)ccc3[nH]2)ncc1C (stereo not shown) [Example 13, 2-[2-(4-Methoxy-5-methyl)pyridylmethylsulfinyl]-5-cyclopropylmethyloxyimidazo[4,5-b]pyridine]",ED50,Indomethacin ulcer,21.9 mg/kg
same,inhibition at 1000 µM,(H^+ +K^+) ATPase,87.4%
same,ED50,[1],37.3 mg/kg
same,ED50,gastric acid secretion,18 mg/kg
same,ED50,[2],9.6 mg/kg
"CCOc1ccc2[nH]c([S+]([O-])Cc3ncc(C)c(C)c3C)nc2n1 (stereo not shown) [Example 8, 2-[2-(3,4,5-Trimethyl)pyridylmethylsulfinyl]-5-ethoxyimidazo[4,5-b]pyridine]",ED50,Indomethacin ulcer,18.8 mg/kg
same,inhibition at 1000 µM,(H^+ +K^+) ATPase,100%
same,ED50,[1],34.2 mg/kg
same,ED50,gastric acid secretion,12 mg/kg
same,ED50,[2],8.2 mg/kg
"COc1c(C)cnc(C[S+]([O-])c2nc3ncc(C)cc3[nH]2)c1C (stereo not drawn) [Compound β, 2-[2-(3,5-dimethyl-4-methoxy)pyridylmethylsulfinyl]-6-methylimidazo[4,5-b]-pyridine, reference compound]",ED50,Indomethacin ulcer,29.5 mg/kg
same,inhibition at 1000 µM,(H^+ +K^+) ATPase,100%
same,inhibitory effect on (H^+ +K^+) ATPase (in words),(H^+ +K^+) ATPase,marked inhibitor effect
same,ED50,[1],63.3 mg/kg
same,ED50,gastric acid secretion,41 mg/kg
same,inhibitory effect on gastric acid secretion (in words),gastric acid secretion,not satisfactorily reflected in the in vivo tests
same,ED50,[2],25.4 mg/kg
"CCCCCCCOc1ccc2[nH]c([S+]([O-])Cc3ncc(C)cc3C)nc2n1 (stereo not shown) [Example 33, 2-[2-(3,5-Dimethyl)pyridylmethylsulfinyl]-5-n-heptyloxyimidazo[4,5-b]pyridine]",ED50,Indomethacin ulcer,23.2 mg/kg
same,inhibition at 1000 µM,(H^+ +K^+) ATPase,95.4%
same,ED50,[1],35.1 mg/kg
same,ED50,gastric acid secretion,17 mg/kg
same,ED50,[2],10.3 mg/kg
"COc1c(C)cnc(C[S+]([O-])c2nc3ncc(Br)cc3[nH]2)c1C (stereo not drawn) [Compound α, 2-[2-(3,5-dimethyl-4-methoxy)pyridylmethylsulfinyl]-6-bromoimidazo[4,5-b]pyridine, reference compound]",ED50,Indomethacin ulcer,78.4 mg/kg
same,inhibition at 1000 µM,(H^+ +K^+) ATPase,100%
same,inhibitory effect on (H^+ +K^+) ATPase (in words),(H^+ +K^+) ATPase,marked inhibitor effect
same,ED50,[1],≥ 100 mg/kg
same,ED50,gastric acid secretion,73 mg/kg
same,inhibitory effect on gastric acid secretion (in words),gastric acid secretion,not satisfactorily reflected in the in vivo tests
same,ED50,[2],63.3 mg/kg
"COc1ccc2[nH]c([S+]([O-])Cc3ncc(C)cc3C)nc2n1 (stereo not shown) [Example 1, 2-[2-(3,5-Dimethyl)pyridylmethylsulfinyl]-5-methoxyimidazo[4,5-b]pyridine]",ED50,Indomethacin ulcer,12.9 mg/kg
same,inhibition at 1000 µM,(H^+ +K^+) ATPase,100%
same,ED50,[1],26.4 mg/kg
same,ED50,gastric acid secretion,13 mg/kg
same,ED50,[2],5.1 mg/kg
"COc1c(C)cnc(C[S+]([O-])c2nc3nc(OCC4CC4)ccc3[nH]2)c1C (stereo not shown) [Example 24, 2-[2-(3,5-Dimethyl-4-methoxy)pyridylmethylsulfinyl]-5-cyclopropylmethyloxyimidazo[4,5-b]pyridine]",ED50,Indomethacin ulcer,13.1 mg/kg
same,inhibition at 1000 µM,(H^+ +K^+) ATPase,100%
same,ED50,[1],27 mg/kg
same,ED50,gastric acid secretion,9 mg/kg
same,ED50,[2],3.5 mg/kg
"COc1ccc2[nH]c([S+]([O-])Cc3ncc(C)c(OC)c3C)nc2c1 (stereo not shown) [Omeprazole, reference compound]",ED50,Indomethacin ulcer,24.7 mg/kg
same,inhibition at 1000 µM,(H^+ +K^+) ATPase,38.7%
same,ED50,[1],39.7 mg/kg
same,ED50,gastric acid secretion,35 mg/kg
same,ED50,[2],13.6 mg/kg
